Assay results reported in patent US10912780B2, “Heterocyclic compounds useful as anti-bacterial agents and method for production thereof” (Bugworks Research, Inc., priority 2017, dated 2021).
In brackets after ≈: the same amount, converted by molar mass. Several values for one entry are separate records, joined by “and”; a condition that tells them apart may be missing. Identical values can stand only once.

Tests used:
[1] = tested on: A. baumannii clinical strains; assay: Antibacterial susceptibility studies (MIC50 and MIC90) with clinical strains, CLSI guidelines; type: cell-based
[2] = tested on: Pseudomonas aeruginosa ATCC 27853; assay: Minimum Inhibitory Concentration (MIC) in LB media; type: cell-based; conditions: Pseudomonas aeruginosa, ATCC27853, read-out: Minimum Inhibitory Concentration P. aeruginosa ATCC 27853
Excerpt: (§1) The compounds of Formula (I) are of interest due to their potent antibacterial effects. The ability of the invention compounds disclosed herein to achieve an antibacterial effect may be evaluated with regard to their ability to inhibit the growth of bacterial species like Escherichia coli ATCC 25922, Staphylococcus aureus ATCC 29213, Klebsiella pneumoniae ATCC 13883, Acinetobacter baumannii ATCC 19606, Pseudomonas aeruginosa ATCC 27853, Enterococcus faecalis ATCC 29212 and Enterococcus faecalis ATCC 29212 using an assay based on the following Minimum Inhibitory Concentration (MIC) protocol:
(§2) The medium sterility is checked by incubating at 37° C. for a period of 48 h.
(§3) Bacterial cultures that are stored as glycerol stocks at −80° C. are sub cultured on LB agar plates to obtain isolated colonies. A single colony of each strain is cultured in LB broth. The cultures are incubated at 37 C, 200 rpm till they reach an optical density (OD at 600 nm) of 0.8 to 1. […] Test compounds are dissolved in dimethyl sulfoxide (DMSO) to a stock concentration of 4 mg/ml. A twofold dilution series of this DMSO stock is prepared in a 96 well V bottom microtitre plate from rows A to H. A 3 μL volume of these dilutions are transferred to a 96-well flat bottom microtitre assay plate. Controls to monitor the effects of DMSO and media sterility are included. Each well is inoculated with 150 μL of the above diluted culture. The plates are incubated at 37° C. overnight in a humidified incubator. The following morning, the plates are read using a Spectrophotometer at 600 nm wavelength. […] The antibacterial activity (MIC) determined against representative Gram positive (S. aureus, E. faecalis) and Gram negative (E.coli, -P. aeruginosa and A. baumannii) pathogen were reported Table 1.

[3] = tested on: Staphylococcus aureus ATCC 29213; assay: Minimum Inhibitory Concentration (MIC) in LB media; type: cell-based; conditions: Staphylococcus aureus, ATCC29213, read-out: Minimum Inhibitory Concentration S. aureus ATCC 29213
Excerpt: as §1, §2, §3

[4] = tested on: Enterococcus faecalis ATCC 29212; assay: Minimum Inhibitory Concentration (MIC) in LB media; type: cell-based; conditions: Enterococcus faecalis, ATCC29212, read-out: Minimum Inhibitory Concentration E. faecalis ATCC 29212
Excerpt: as §1, §2, §3

[5] = tested on: Escherichia coli ATCC 25922; assay: Minimum Inhibitory Concentration (MIC) in LB media; type: cell-based; conditions: Escherichia coli, ATCC25922, read-out: Minimum Inhibitory Concentration E. coli ATCC 25922
Excerpt: as §1, §2, §3

[6] = tested on: Klebsiella pneumoniae ATCC 13883; assay: Minimum Inhibitory Concentration (MIC) in LB media; type: cell-based; conditions: Klebsiella pneumoniae, ATCC13883, read-out: Minimum Inhibitory Concentration K. pneumoniae ATCC 13883
Excerpt: as §1, §2, §3

E. coli clinical strains = assay: Antibacterial susceptibility studies (MIC50 and MIC90) with clinical strains, CLSI guidelines; type: cell-based
E. coli DNA gyrase = E. coli DNA gyrase (Escherichia coli, UniProt P0AES4+P0AES6); assay: biochemical; conditions: supercoiling assay
[7] = tested on: P. aeruginosa clinical strains; assay: Antibacterial susceptibility studies (MIC50 and MIC90) with clinical strains, CLSI guidelines; type: cell-based
[8] = tested on: P. aeruginosa [ATCC27853]; assay: Neutropenic lung infection model in rat; type: in vivo; conditions: for MEAN ± SD (Log 10 CFU/g Lung) / Mean Log 10CFU/g lung reduction (wrt 4 h PI control 5.78 Log10CFU/g lung) / Log 10 CFU/g Lung: neutropenic rat, 24 h post infection; for Log 10 CFU/g Lung: individual animals
Description: The purpose of this study was to evaluate the efficacy of example 15 against P. aeruginosa [ATCC27853], following single dose intravenous infusion doses of 10, 30 and 100 mg/kg in a neutropenic lung infection model in rats
Prior to the start of the infection process, all animals were divided into different groups. All grouped cages of animals were carried to a procedure room, close to a biological safety cabinet. All infections were conducted in a biological safety cabinet, with appropriate personnel protection. Animals were placed into an induction chamber and anaesthesia was induced by exposing the animals to 3-5% Isoflurane in an oxygen flow set at approximately (˜) 1 liter per minute (LPM). Once the animals were in a sufficiently deep plane of anaesthesia as monitored by pedal reflex, they were removed and infected (2). […] A gentle mixing of inoculum between two animals was followed for uniform distribution.
The IV formulation vehicle used for example 15 was 10% of L-ascorbic acid in fresh MilliQ water (w/v) with pH adjusted to ˜4.0 with 1N Sodium hydroxide solution (w/v), and the dose volume was 10 mL/kg. Meropenem was formulated in saline. […] The dose levels of the test Example 15 were 10, 30 and 100 mg/kg.
All the animals in groups were sacrificed at 24 h post infection, as specified in experimental design, by an overdose of CO2 in an appropriate exposure chamber. The group 1 animals were sacrificed at 4 hrs post infection. The euthanized animals were dipped into 70% ethanol for surface decontamination. Entire Lung was aseptically isolated, weighed and placed into 1 mL of sterile CSDB broth, and homogenized (Omni Tip (220 V hand held)). Serial ten-fold dilutions of the lungs homogenates were prepared in sterile CSD broth and 0.05 mL of four dilutions for each tissue was plated onto CSDA agar plates. Bacterial colonies were enumerated following overnight incubation at 37° C. Bacterial densities were estimated as Log10 CFU/g lung. The Mean±SD Log10 CFU/g lung was estimated in each group. Significant differences between group means and control were analyzed by one way ANOVA, followed by a Dunnett's multiple comparison test, using Graphpad Prism at 95% confidence levels.

E. coli DNA gyrase, sequence (P0AES4 whole entry, one chain of several): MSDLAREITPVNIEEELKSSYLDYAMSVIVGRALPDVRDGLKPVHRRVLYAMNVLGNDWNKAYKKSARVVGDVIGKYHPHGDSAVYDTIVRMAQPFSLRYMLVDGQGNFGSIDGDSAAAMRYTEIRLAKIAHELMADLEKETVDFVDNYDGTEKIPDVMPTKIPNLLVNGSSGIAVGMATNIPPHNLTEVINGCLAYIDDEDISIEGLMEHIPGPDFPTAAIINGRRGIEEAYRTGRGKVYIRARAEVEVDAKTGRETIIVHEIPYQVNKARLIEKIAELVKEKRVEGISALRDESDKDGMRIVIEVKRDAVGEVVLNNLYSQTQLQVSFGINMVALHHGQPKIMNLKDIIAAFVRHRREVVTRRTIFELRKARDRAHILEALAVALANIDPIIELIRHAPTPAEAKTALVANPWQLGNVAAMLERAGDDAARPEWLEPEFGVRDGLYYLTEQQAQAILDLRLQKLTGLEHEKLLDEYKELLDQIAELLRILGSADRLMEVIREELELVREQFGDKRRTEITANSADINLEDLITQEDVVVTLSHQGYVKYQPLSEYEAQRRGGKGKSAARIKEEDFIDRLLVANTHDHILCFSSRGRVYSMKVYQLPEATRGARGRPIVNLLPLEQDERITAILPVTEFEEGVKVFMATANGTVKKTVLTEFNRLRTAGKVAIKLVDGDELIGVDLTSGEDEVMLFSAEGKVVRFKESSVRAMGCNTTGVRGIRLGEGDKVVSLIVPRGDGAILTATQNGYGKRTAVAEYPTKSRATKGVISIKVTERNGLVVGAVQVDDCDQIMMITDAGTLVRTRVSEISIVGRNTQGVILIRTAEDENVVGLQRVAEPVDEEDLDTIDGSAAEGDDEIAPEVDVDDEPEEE

In the case of `Cn1c(=O)ccc2ccc(F)c(CCNC[C@H]3CN(c4cnc5c(n4)NC(=O)CO5)C(=O)O3)c21` [Example 15, (S)-6-(5-(((2-(7-fluoro-1-methyl-2-oxo-1,2-dihydroquinolin-8-yl)ethyl)amino)methyl)-2-oxooxazolidin-3-yl)-2H-pyrazino[2,3-b][1,4]oxazin-3(4H)-one], the MIC ATCC19606 ([1]; A. baumannii reference strain ATCC19606, no unit in this line) is reported as 0.06 µg/mL (≈ 0.128 µM), the MIC50 ([1]; Acinetobacter baumannii) is reported as 0.06 µg/mL (≈ 0.128 µM) and the MIC90 ([1]; Acinetobacter baumannii) is reported as 0.125 µg/mL (≈ 0.267 µM). The Minimum ([1]; lowest MIC among A. baumannii clinical strains (169 strains; Example 15: 132), no unit in this line) was 0.03, the MIC [2] was 0.25 µg/mL (≈ 0.534 µM) and the MIC [3] was no more than 0.015 µg/mL. The MIC [4] was 0.06 µg/mL (≈ 0.128 µM), the MIC [5] was 0.03 µg/mL (≈ 0.064 µM) and the MIC [6] was 0.03 µg/mL (≈ 0.064 µM). The MIC ATCC25922 (E. coli clinical strains; E. coli reference strain ATCC25922, no unit in this line (MIC50/MIC90 lines: μg/ml)) was 0.06 µg/mL (≈ 0.128 µM), the MIC50 (E. coli clinical strains; Escherichia coli) was 0.06 µg/mL (≈ 0.128 µM) and the MIC90 (E. coli clinical strains; Escherichia coli) was 0.25 µg/mL (≈ 0.534 µM). It also gave a Minimum (E. coli clinical strains; lowest MIC among E. coli clinical strains (201 strains; Example 15: 176), no unit in this line) of 0.03, an IC50 (E. coli DNA gyrase) of 4.6 nM and an MIC ATCC27853 ([7]; P. aeruginosa reference strain ATCC27853, no unit in this line) of 0.25 µg/mL (≈ 0.534 µM). For the same compound, the MIC50 ([7]; Pseudomonas aeruginosa) was 0.5 µg/mL (≈ 1.07 µM), the MIC90 ([7]; Pseudomonas aeruginosa) was 1 µg/mL (≈ 2.13 µM) and the Minimum ([7]; lowest MIC among P. aeruginosa clinical strains (215 strains; Example 15: 176), no unit in this line) was 0.03. For the same compound, the “MEAN ± SD (Log 10 CFU/g Lung)” value ([8]; 10 mg/kg, i.v. 1 h infusion) was 6.63 ± 0.15 Log 10 CFU/g Lung, the “Mean Log 10CFU/g lung reduction (wrt 4 h PI control 5.78 Log10CFU/g lung)” value (shortened to “Mean Log 10CFU/g lung reduction”) ([8]; 10 mg/kg, i.v. 1 h infusion) was −0.85 Log10CFU/g lung and the “MEAN ± SD (Log 10 CFU/g Lung)” value ([8]; 30 mg/kg, i.v., 1 h infusion) was 4.74 ± 0.08 Log 10 CFU/g Lung. The “Mean Log 10CFU/g lung reduction” value ([8]; 30 mg/kg, i.v., 1 h infusion) was 1.04 Log10CFU/g lung, the “MEAN ± SD (Log 10 CFU/g Lung)” value ([8]; 100 mg/kg, i.v., 1 h infusion) was 4.76 ± 0.2 Log 10 CFU/g Lung and the “Mean Log 10CFU/g lung reduction” value ([8]; 100 mg/kg, i.v., 1 h infusion) was 1.02 Log10CFU/g lung. For the same compound, the “Log 10 CFU/g Lung” value ([8]; 10 mg/g, i.v. 1 h infusion) was 6.68 Log 10 CFU/g Lung and 6.75 Log 10 CFU/g Lung and 6.47 Log 10 CFU/g Lung, the “Log 10 CFU/g Lung” value ([8]; 30 mg/kg, i.v., 1 h infusion) was 4.79 Log 10 CFU/g Lung and 4.65 Log 10 CFU/g Lung and 4.78 Log 10 CFU/g Lung and the “Log 10 CFU/g Lung” value ([8]; 100 mg/kg, i.v., 1 h infusion) was 4.84 Log 10 CFU/g Lung and 4.53 Log 10 CFU/g Lung and 4.90 Log 10 CFU/g Lung. For the same compound, the “efficacy compared to the early infection control (in words)” value ([8]; rat lung model, 10 mg/kg) was “bacteriostatic”, the “efficacy with respect to early infection control (in words)” value ([8]; rat lung model, 30 mg/kg and 100 mg/kg) was “significant efficacy” and the “efficacy versus standard drug (in words)” value ([8]; rat lung model, similar dose (30 mg/kg)) was “comparable to standard drug meropenem”.
